From patent US20080319055A1, “Cooling Compounds” (GIVAUDAN SA, priority 2005, published 2008)

Tested on: trained panel of 4 to 8 people
Assay: Cooling intensity by trained panel, isointensity method versus menthol
Assay type: in vivo
Conditions: aqueous solutions tasted, compared to aqueous solution of reference menthol at 2 ppm
Protocol: The cooling intensity of the compounds was determined by a trained panel of 4 to 8 people according to the isointensity method as described below.
Aqueous solutions of various concentrations of a chemical compound were prepared and tasted. The cooling intensity of each solution was compared to that of an aqueous solution of the reference compound at 2 ppm, namely menthol.

Compound | rel. cooling intensity
COC(=O)c1ccc(C(=O)NC(C)(C(C)C)C(C)C)cc1 [Ex. 5C, N-(1-methyl-1-isopropyl-isobutyl) O-methylterephthalamate] | 1.7
CC(C)C(C)(NC(=O)c1ccc2c(c1)OCO2)C(C)C [Ex. 5K, N-(1-methyl-1-isopropyl-isobutyl)benzo[1,3]dioxole-5-carboxamide] | 0.9
CC(C)C(NC(=O)c1ccc2c(c1)OCO2)C(C)C [Ex. 5H, N-(1-isopropyl-isobutyl)benzo[1,3]dioxole-5-carboxamide] | 0.9
COC(=O)c1ccc(C(=O)NC2CC(C)CCC2C(C)C)cc1 (stereo not shown) [Ex. 5D, N-(3-p-menthyl) O-methylterephthalamate] | 2.5
CCC(CC)(CC)NC(=O)c1ccc(-c2ccccc2)cc1 [Ex. 5E, N-(1,1-diethylpropyl)biphenyl-4-carboxamide] | 1.2
CC(C)C(C)(NC(=O)c1ccc(-c2ccccc2)cc1)C(C)C [Ex. 5F, N-(1-methyl-1-isopropyl-isobutyl) biphenyl-4-carboxamide] | 1.5
CC1(C)C2CCC1(C)C(NC(=O)c1ccccc1)C2 (stereo not shown) [Ex. 5M, N-bornyl benzamide] | 0.6
COc1ccc(C(=O)NC(C)(C(C)C)C(C)C)cc1 [Ex. 4, N-1-methyl-1-isopropylisobutyl anisamide] | 1.1
CCC(CC)(CC)NC(=O)c1ccc2c(c1)OCO2 [Ex. 5L, N-(1,1-diethylpropyl)benzo[1,3]dioxole-5-carboxamide] | 0.3

Tested on: mouth
Assay: Application in mouthwash, cooling sensation in the mouth
Assay type: in vivo
Conditions: 50 mL of 1% solution in alcohol per 1 liter mouthwash (also contains peppermint oil); 30 mL swished, gargled and spit out
Protocol: All the ingredients were mixed. 30 mL of obtained solution was put in the mouth, swished around, gargled and spit out.

Compound | cooling sensation in mouthwash
COc1ccc(C(=O)NC(C)(C(C)C)C(C)C)cc1 [Ex. 4, N-1-methyl-1-isopropylisobutyl anisamide] | pleasant cooling sensation was felt in every area of the mouth
